Measurements published in ChEMBL document CHEMBL1201862, “PubChem BioAssay data set” (2004).
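These data come from cells grown in 96-well plates and exposed to compound for 48 hours at five concentrations. GI50 is the concentration that inhibits growth by half.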 Active and inactive are the calls of the source. Cut-off read from the data, not from the text of the source: active = GI50 up to about 1.1 µM and inactive = higher.

Columns and labels:
Assay in all cases: NCI tumour cell line growth inhibition, 48 h
[1] = tested on: MDA-MB-435
[2] = tested on: COLO 205
[3] = tested on: DU-145
[4] = tested on: EKVX
[5] = tested on: U-251
[6] = tested on: HL-60
[7] = tested on: MDA-MB-231
[8] = tested on: Malme-3M
[9] = tested on: HCT-116
[10] = tested on: SW-620
[11] = tested on: KM12
[12] = tested on: OVCAR-4
[13] = tested on: UACC-62
[14] = tested on: NCI-H23
[15] = tested on: ACHN
[16] = tested on: SF-539
[17] = tested on: Hs-578T
[18] = tested on: A549
[19] = tested on: CCRF-CEM
[20] = tested on: RPMI-8226

Measured: GI50

CCOC(=O)c1ccc(/N=C/C=C(\Nc2ccc(C(=O)OCC)cc2)C23CC4CC(CC(C4)C2)C3)cc1
inactive: [1] 89.7 µM | [2] 45 µM | [3] 55.1 µM | [4] 48.4 µM | [5] > 100 µM | [6] 3.27 µM | [7] > 100 µM | [8] > 100 µM | [9] 56.5 µM | [10] 27.5 µM | [11] 43.5 µM | [12] 70 µM | [13] 31 µM | [14] 54 µM | [15] 93.1 µM | [16] 28.2 µM | [17] > 100 µM | [18] 50.6 µM

CN1C(=O)c2c(ccc3c2OCO3)C2C(O)Cc3cc4c(cc3C21)OCO4 (stereo not given)
inactive: [1] 1.61 µM | [2] 3.88 µM | [19] 3.37 µM | [3] 3.65 µM | [4] 3.28 µM | [5] 4.29 µM | [6] 2.4 µM | [7] 3.38 µM | [9] 4.34 µM | [10] 3.79 µM | [11] 3.15 µM | [12] > 100 µM | [13] 3.36 µM | [14] 5.58 µM | [15] 7.21 µM | [16] 4.57 µM | [17] 5.26 µM | [18] 5.96 µM | [20] 3.83 µM

Cc1cc2c(cc1Cl)SC(NNc1cnc3ccccc3n1)=NS2(=O)=O
inactive: [1] > 100 µM | [2] 49.7 µM | [19] 46.8 µM | [3] > 100 µM | [4] > 100 µM | [5] 48.6 µM | [6] > 100 µM | [7] 61 µM | [8] 22.6 µM | [9] 48.1 µM | [10] 67.8 µM | [11] 74.3 µM | [12] 56.8 µM | [13] 60.7 µM | [14] > 100 µM | [15] > 100 µM | [16] 29.4 µM | [17] 51.9 µM | [18] 78.9 µM

Cc1cccc2c1CC(C1OC(=O)c3c(C)cccc31)C2=O (stereo not given)
inactive: [1] > 100 µM | [2] > 100 µM | [19] > 100 µM | [3] > 100 µM | [4] > 100 µM | [5] > 100 µM | [6] > 100 µM | [7] > 100 µM | [8] > 100 µM | [9] > 100 µM | [10] > 100 µM | [11] > 100 µM | [12] > 100 µM | [13] > 100 µM | [14] > 100 µM | [15] > 100 µM | [16] > 100 µM | [17] > 100 µM | [18] > 100 µM | [20] 88.5 µM

O=C1O/C(=C\c2ccc(O)cc2)C(c2ccc(O)c(Cl)c2)=C1Cl
inactive: [1] 27.4 µM | [2] 96.6 µM | [19] 35.7 µM | [3] > 100 µM | [4] 88.5 µM | [5] 60.5 µM | [6] 33 µM | [7] 77.4 µM | [8] 24.5 µM | [10] 41.7 µM | [11] 34 µM | [12] 69 µM | [13] 32.1 µM | [14] 33.7 µM | [15] 57.7 µM | [16] 91.8 µM | [17] > 100 µM | [18] 40.1 µM | [20] > 100 µM

Cc1ccc(S(=O)(=O)NNC2(NS(=O)(=O)c3ccc(Cl)cc3)C(Cl)=C(Cl)C(=O)c3ccccc32)cc1 (stereo not given)
inactive: [1] 18.8 µM | [2] 18.1 µM | [19] 22.9 µM | [3] 18.5 µM | [4] 15.5 µM | [5] 21.8 µM | [6] 14.4 µM | [7] 19 µM | [8] 17.3 µM | [9] 17.9 µM | [10] 26 µM | [11] 17.3 µM | [12] 16.1 µM | [13] 16.6 µM | [14] 15 µM | [15] 16.1 µM | [16] 21.2 µM | [17] 17.2 µM | [18] 16.9 µM | [20] 5.4 µM

C#CC1(O)CCC2[C@@H]3CCc4cc(Oc5nc(F)nc(-c6c(C)c(C(=O)OCC)n7ccccc67)n5)ccc4C3CC[C@@]21C (stereo not given in full)
inactive: [1] > 100 µM | [2] > 100 µM | [19] 61 µM | [3] > 100 µM | [4] > 100 µM | [5] > 100 µM | [6] > 100 µM | [7] > 100 µM | [8] > 100 µM | [9] > 100 µM | [10] > 100 µM | [11] > 100 µM | [12] > 100 µM | [13] > 100 µM | [14] > 100 µM | [15] > 100 µM | [16] > 100 µM | [17] > 100 µM | [18] > 100 µM | [20] > 100 µM
